Source: patent US10196357B2, “Biaryl compositions and methods for modulating a kinase cascade” (Athenex, Inc., priority 2007, dated 2019)
Values joined by “and” are separate entries in the source; they are usually repeats but may differ in a detail not shown here. Identical values can stand only once. Like-named read-outs stand apart in the source and are kept apart here.

Assays:
c-Src 3T3 cells = assay: BrdU cell growth inhibition, c-Src 3T3; type: cell-based, mouse; details: for GI50: c-Src 3T3 (c-Src527F/NIH3T3) cells, read-out: GI50
Method in brief: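 c-Src 3T3 cells on poly-D-lysine plates in DMEM with 2% FBS, L-glutamine, pyruvate and 10 mM HEPES. Compounds came from 20 mM DMSO stocks diluted in DMEM/10% FBS. Proliferation was read by colorimetric BrdU-incorporation ELISA, and GI50 was extrapolated from growth relative to time-zero and untreated controls.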

[1] = body weight in GL261 glioma survival study; type: in vivo; details: C57BL/6 mice
Protocol: (§1) A brain tumor mouse xenograft study was conducted comparing KX2-361 and KX2-391 (KXO1) to Temodar®. The studies were conducted in C57BL/6 mice. GL261 glioma cells (1×10^5 in 5 μl DMEM) were implanted intracranial coordinates: bregma, lateral 2.0 mm, anterior 1.2 mm, 3.0 mm depth dura. Treatment was initiated 3 days post implantation. The groups were as follows (all doses in 100 μl H2O):
FIGS. 49A-E show the weight gain in each of the C57BL/6 mice in the different treatment groups. The average weight at endpoint for each of the treatment groups is shown below in Table 30. FIG. 50 is a graph showing the average weights over a 40-day period for each of the treatment groups.

GL261 glioma cells = assay: intracranial GL261 glioma survival study; type: in vivo, C57BL/6 mice; details: for Median survival / survival Range: C57BL/6 mice, intracranial GL261
Protocol: as §1
The median survival range and the log-rank (Mantel-Cox) statistical test results comparing the survival distributions of the samples.

HT29 cell line = assay: BrdU cell growth inhibition, HT29; type: cell-based, human; details: for GI50: read-out: GI50
Method in brief: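 HT29 colon carcinoma cells treated with compounds diluted from 20 mM DMSO stocks into DMEM/10% FBS. Proliferation read as colorimetric BrdU incorporation ELISA; GI calculated relative to untreated cells at time 0 and control cells at day n, with GI50 extrapolated. Net cell loss below time-0 level scored as cytotoxicity.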

Shc Y239/240 = assay: intracellular phosphorylation, Shc Y239/240; type: cell-based; details: whole cells
Protocol: HT29 (colon cancer) and c-Src527F/NIH-3T3 (Src transformed) cell lines were treated with KX2-391 or with AstraZeneca's ATP competitive Src inhibitor AZ28. AZ28 serves as a positive comparator to show what a validated Src inhibitor should do in these assays. After treatment with compound, cells were lysed, subjected to PAGE and probed with a battery of antibodies. […] In addition, off-target protein phosphorylation was also investigated. Further, induction of apoptosis was evaluated via Caspase 3 cleavage. Multiple doses of each compound were tested because the trends in response to increasing drug concentration are the most reliable indicator of activity.
The same range of multiples of the GI50 for AZ28 in these two cell lines was run as a comparison.
KX2-391 and AZ28 inhibited Src transphosphorylation.

L3.6pl cells = assay: growth inhibition (BrdU), L3.6pl; type: cell-based, human; details: L3.6pl (Pancreas) cells, single agent
Excerpt: L3.6pl cells are previously described in Trevino et al. Am J Pathol.

[2] = test system: lung cancer cell line A549; assay: tumor growth inhibition, A549; type: cell-based, Human
Excerpt: (§2) Growth Inhibition. […] T1 values≤T0 values were designated as T, cytotoxicity.

MDA231 (Breast) = assay: growth inhibition (BrdU), MDA231; type: cell-based, Human
Excerpt: as §2

K562 (CML) = assay: growth inhibition (BrdU), K562; type: cell-based, Human
Excerpt: as §2

[3] = Homo sapiens, HT-29, HT29 (Colon) cells

`O=C(Cc1ccc(-c2ccc(N3CCOCC3)cc2)cn1)NCc1cccc(F)c1` [KX2-361] showed an activity at 0.1 µM (c-Src 3T3 cells; Mus musculus, NIH3T3, 100 nM, read-out: c-Src 3T3 Growth, % of Control Mean, n = 3) of less than 0%, an activity at 1 µM (c-Src 3T3 cells; Mus musculus, NIH3T3, 1.0 uM, read-out: c-Src 3T3 Growth, % of Control Mean, n = 3) of less than 0% and an activity at 10 µM (c-Src 3T3 cells; Mus musculus, NIH3T3, 10 uM, read-out: c-Src 3T3 Growth, % of Control Mean, n = 3) of less than 0%. The GI50 (c-Src 3T3 cells; Mus musculus) was 11 nM, the “Average weight at endpoint” value ([1]; 15 mg/kg) was 16.9 g and the “Average weight at endpoint” value ([1]; 30 mg/kg) was 15.0 g. For the same molecule, the Median survival (GL261 glioma cells; 15 mg/kg bid oral) was 30.5, the “survival Range” value (GL261 glioma cells; 15 mg/kg bid oral) was 25-34 and the Median survival (GL261 glioma cells; 30 mg/kg bid oral) was 29. For the same molecule, the “survival Range” value (GL261 glioma cells; 30 mg/kg bid oral) was 23-32, the “survival of mice bearing intracranial GL261 gliomas” value (GL261 glioma cells; orally at 15 mg/kg/dose bid 7 hours apart) was “best results” and the GI50 (HT29 cell line; [3]) was 10 nM. For the same molecule, the activity at 0.05 µM (HT29 cell line; Homo sapiens, HT-29, 50 nM, read-out: HT-29 Growth, % of Control Mean, n = 3) was less than 0%, the activity at 0.5 µM (HT29 cell line; Homo sapiens, HT-29, 500 nM, read-out: HT-29 Growth, % of Control Mean, n = 3) was less than 0% and the activity at 5 µM (HT29 cell line; Homo sapiens, HT-29, 5 uM, read-out: HT-29 Growth, % of Control Mean, n = 3) was less than 0%.

For `O=C(Cc1ccc(-c2ccc(OCCN3CCOCC3)cc2)cn1)NCc1ccccc1` [KX2-391], the “phosphorylation of Shc Y239/240 (Src transphosphorylation)” value (Shc Y239/240) was “inhibited”, the GI50 (L3.6pl cells; Homo sapiens, L3.6pl) was 53 nM and the GI50 (c-Src 3T3 cells; Mus musculus) was 13 nM. For the same molecule, the “Average weight at endpoint” value ([1]; 5 mg/kg) was 14.3 g, the GI50 ([2]; Homo sapiens, A549, A549, BrdU, T=72) was 9.39 nM and the GI50 (MDA231 (Breast); Homo sapiens, MDA-MB-231, MDA-MB-321, BrdU, T=72) was 19.8 nM. The Median survival (GL261 glioma cells; 5 mg/kg bid oral) was 23, the “survival Range” value (GL261 glioma cells; 5 mg/kg bid oral) was 22-29 and the GI50 (K562 (CML); Homo sapiens, K562, K562, BrdU, T=72) was 10.9 nM. It also gave a GI50 (HT29 cell line; [3]) of 23 nM and a GI50 (HT29 cell line; Homo sapiens, HT-29, HT-29, BrdU, T=72) of 15.4 nM.

For `O=C(Cc1ccc(-c2ccc(OCCN3CCOCC3)cc2)cn1)NCc1ccccc1` [KXO1], the “phosphorylation of Shc Y239/240 (Src transphosphorylation)” value (Shc Y239/240) was “potent inhibitor”, the GI50 (L3.6pl cells) was 25 nM and 32 nM and the GI50 (c-Src 3T3 cells) was 23 nM. The GI50 ([2]; A549 (Lung) cells) was 9.4 nM and 13 nM, the GI50 (MDA231 (Breast); MDA231 (Breast) cells) was 20 nM and the GI50 (K562 (CML); K562 (CML)) was 13 nM. For the same molecule, the GI50 (HT29 cell line; HT29 (Colon) cells) was 25 nM.
